Experimental data taken from patent US20130261165A1, “PREVENTION AND TREATMENT OF DISEASES CHARACTERIZED BY MESENCEPHALIC DOPAMINERGIC NEURON CELL DEATH” (THE MCLEAN HOSPITAL CORPORATION, priority 2010, published 2013).
Values joined by “and” are separate entries in the source; they are usually repeats but may differ in a detail not shown here. Identical values can stand only once. Counter-ions that a name gives are not always drawn.

What was measured:
FoxA2 [1] = assay: FoxA2 mRNA expression by qPCR in primary ventral midbrain cultures; conditions: for fold induction at 10 µM: Mus musculus, 24 h, read-out: Fold Increase in FoxA2 Expression
Description: (§5) One library consisting of FDA-approved and non-FDA approved drugs (NINDS) was screened for drugs with an ability to up-regulate En-1 and/or FoxA2 expression in neuronal cells. Candidate compounds were screened in a gene expression assay using a qPCR detection methodology in a primary ventral midbrain preparation of E12 mice.
(§6) To determine the extent of upregulation in the compounds of interest after initial screening, primary cultures of ventral midbrain cells of E12 CD1 mice were prepared. The embryonic ventral midbrains were removed and stored in HBSS on ice. The dissection time was less than 30-60 minutes. The ventral midbrain tissue was dissociated by removal of the HBSS and addition of 1 ml of 0.05% trypsin-EDTA for 10 minutes at 37° C. During incubation, the tissue and the trypsin-EDTA solution was mixed by occasional careful swirling of the tube. The reaction was stopped, the trypsin aspirated, and 1 ml of 50% HBSS/FBS was added. […] Candidate compound treatment was stopped by cell lysis. The mRNA was isolated and cDNA was synthesized using the Qiagen Turbocapture™ kit (Qiagen Inc., Valencia, Calif.) using Superscript III® reverse transcriptase (Life Technologies, Carlsbad, Calif.) according to manufacturer's protocol. En-1 and FOXA2 mRNA in the cultured cells was quantified using qPCR. […] Assay fluorescence was determined using a Step-One Plus fluorescence plate reader in 96-well plates at a standard reaction time for ramp speed.
(§7) The fold change in mRNA expression level was calculated according to the following formulas:
Fold change=2^−ΔΔCt wherein [1]
(§8) ΔΔCt=(Cttarget gene−Ct18S)treated−(Cttarget gene−Ct18S)untreated.
(§9) In formula 2, Cttarget gene refers to the Ct value determined for either En-1 or FOXA2 (as appropriate) and Ct18S refers to the Ct value determined for the mRNA encoding the 18S ribosomal subunit, each measured by qPCR.

En-1 [2] = assay: En-1 mRNA expression by qPCR in primary ventral midbrain cultures; conditions: for fold induction at 10 µM: Mus musculus, 24 h, read-out: Fold Increase in En-1 Expression
Description: as §5, §6, §7
Fold change=2^−ΔΔCt wherein [1]
as §8, §9

[3] = cited from earlier work
[4] = system: FoxA2 positive dopaminergic neurons; conditions: 10 μM pre-treatment 24 hours prior to 6-OHDA (1-50 μM); control = cells not exposed to toxin
Description: The embryonic ventral midbrains were removed and stored in HBSS on ice. The dissection time was less than 30-60 minutes. The ventral midbrain tissue was dissociated by removal of the HBSS and the addition of 1 ml of 0.05% trypsin-EDTA for 10 minutes at 37° C. During incubation, the tissue and the trypsin-EDTA solution was mixed by occasional careful swirling of the tube. The reaction was stopped, the trypsin aspirated, and 1 ml of 50% HBSS/FBS was added. […] The tissue was triturated using an autoclaved glass pasteur pipette with narrowed opening and a stripettor. The cell suspension was centrifuged at 1000 rpm for 5 min, the supernatant aspirated, and the cells resuspended in E12 media. Twenty-five thousand cells per well were plated in 96 well PLO/laminin coated black-wall imaging plates (Costar) and incubated for 6 days without candidate compound treatment. […] 6-hydroxydopamine hydrobromide (6-OHDA) (Sigma) was reconstituted in ascorbic acid and PBS and added at concentrations of 1-50 μM to the cultures. […] Cultures were stained for tyrosine hydroxylase, FoxA2 and Hoechst and visualized using alexa fluor secondary antibodies. Cultures were analyzed by high content analysis (using an InCell 2000 instrument). The percentage of FoxA2 positive dopaminergic neurons were documented.

En-1 [5] = conditions: adult male C57 mice, 20 mg/kg/day subcutaneous for 12 days, n=8, qPCR vs GAPDH and β-actin, listed as duloxetine HCl, hydrochloride
Description: (§1) Adult mice were treated with duloxetine HCl (20 mg/kg/day) by subcutaneous injection for 12 days (n=8). […] Data were obtained by qPCR analysis using GAPDH and β-actin as housekeeping genes followed by ΔΔCt calculation.
(§2) Duloxetine HCl (20 mg/kg/day) or saline vehicle was administrated subcutaneously into adult male C57 mice over a period of 12 days. […] Substantia nigra pars compacta was fresh dissected and snap frozen in RNA preserving solution in liquid nitrogen. […] Changes in mRNA expression due to duloxetine HCl treatment were determined by quantitative PCR using a Step One Plus Instrument and TaqMan® reagents (Applied Biosystems). […] Beta actin and GAPD were used as housekeeping genes and fold regulation was calculated using the delta Ct method.
(§3) ΔΔCt=(Cttarget gene−Cthousekeeping gene)treated−(Cttarget gene−Cthousekeeping gene)untreated
(§4) Untreated refers to combined cDNA from the saline treated animals. cDNA from each saline treated animal was also run against the pooled control cDNA.

FoxA2 [6] = conditions: adult male C57 mice, 20 mg/kg/day subcutaneous for 12 days, n=8, qPCR vs GAPDH and β-actin, listed as duloxetine HCl, hydrochloride
Description: as §1, §2, §3, §4

[7] = primary ventral midbrain cells of E12 CD1 mice, 10 μM for 24 hours, qPCR vs 18S

| SMILES | fold induction at 10 µM (FoxA2 [1]) | fold induction at 10 µM (En-1 [2]) | further results |
| --- | --- | --- | --- |
| CC(=O)S[C@@H]1CC2=CC(=O)CC[C@]2(C)[C@H]2CC[C@@]3(C)[C@@H](CC[C@@]34CCC(=O)O4)[C@H]12 [Spironolactone] | 1.74 | 1.34 | – |
| COc1ccc2c(c1OC)C(=O)O[C@@H]2[C@H]1c2c(cc3c(c2OC)OCO3)CCN1C [Noscapine hydrochloride] | 1.45 | 1.83 | – |
| COc1ccccc1OCC(O)COC(N)=O (stereo not drawn) [Methocarbamol] | 2.3 | 1.83 | – |
| CC(C)NCC(O)COc1cccc2[nH]ccc12 (stereo not drawn) [Pindolol] | 44.1 | 9.8 | – |
| C#CCN(C)Cc1ccccc1 [Pargyline hydrochloride] | 1.27 | 1.73 | – |
| O=C(O)c1ccccc1Nc1cccc(C(F)(F)F)c1 [Flufenamic acid] | 3.4 | 2.6 | – |
| CCCc1cc(=O)[nH]c(=S)[nH]1 [Propylthiouracil] | 1.68 | 1.3 | – |
| C[N+]1(C)[C@@H]2C[C@@H](OC(=O)[C@H](CO)c3ccccc3)C[C@H]1[C@@H]1O[C@@H]12 [Methscopolamine bromide] | 1.9 | 1.9 | – |
| CC(=O)O[C@]1(C(C)=O)CC[C@H]2[C@@H]3C=C(C)C4=CC(=O)CC[C@]4(C)[C@H]3CC[C@@]21C [Megestrol acetate] | 1.89 | 2.14 | – |
| NNCCc1ccccc1 [Phenelzine sulfate] | 2.5 | – | – |
| Cn1cc[nH]c1=S [Methimazole] | 1.97 | 0.2 | – |
| CC1(C)O[C@@H]2C[C@H]3[C@@H]4C[C@H](F)C5=CC(=O)CC[C@]5(C)[C@H]4[C@@H](O)C[C@]3(C)[C@]2(C(=O)CO)O1 [Flurandrenolide] | 1.9 | 1.5 | – |
| CCN1CCCC1CNC(=O)c1cc(S(N)(=O)=O)ccc1OC (stereo not drawn) [Sulpiride] | 1.7 | 1.4 | – |
| CCC1(c2ccccc2)C(=O)NCNC1=O [Primidone] | 1.43 | 0.86 | – |
| C[C@H]1C[C@@H]2[C@H]([C@@H](O)C[C@@]3(C)[C@H]2CC[C@]3(O)C(=O)CO)[C@@]2(C)C=CC(=O)C=C12 [Methylprednisolone] | 1.41 | 1.38 | – |
| CO[C@@]1(NC(=O)C(C(=O)O)c2ccc(O)cc2)C(=O)N2C(C(=O)O)=C(CSc3nnnn3C)CO[C@@H]21 (stereo partly drawn) [Moxalactam disodium] | 7.31 | 4.34 | – |
| CC(N)C12CC3CC(CC(C3)C1)C2 (stereo not drawn) [Rimantadine hydrochloride] | 2.7 | 1.3 | – |
| CCCCNC(=O)NS(=O)(=O)c1ccc(C)cc1 [Tolbutamide] | 35 | 21.6 | – |
| CNCC[C@H](Oc1cccc2ccccc12)c1cccs1 [Duloxetine] | – | – | dosage hydrolyzed to 1-naphthol ([3]; pH 1.0, within one hour): 50%; dosage degraded to 1-naphthol ([3]; pH 2.0, in one hour): 10%; time for 10% degradation ([3]; pH 4.0): up to 63 hours |
| c1ccc(CC2=NCCN2)cc1 [Tolazoline hydrochloride] | 2.67 | 2.51 | – |
| c1ccc2c(CC3=NCCN3)cccc2c1 [Naphazoline hydrochloride] | 1.99 | 8.95 | – |
| c1ccc2c(c1)CCCC2C1=NCCN1 (stereo not drawn) [Tetrahydrozoline hydrochloride] | 2.06 | 1.06 | – |
| CC(=O)c1ccc(S(=O)(=O)NC(=O)NC2CCCCC2)cc1 [Acetohexamide] | 3 | 2.3 | – |
| O=C1CC[C@@]2(O)[C@H]3Cc4ccc(O)c5c4[C@@]2(CCN3CC2CC2)[C@H]1O5 [Naltrexone hydrochloride] | 3.39 | 2.09 | – |
| CC(CCc1ccccc1)NC(C)C(O)c1ccc(O)cc1 (stereo not drawn) [Nylidrin hydrochloride] | 1.7 | – | – |
| Cc1ccccc1C(OCCN(C)C)c1ccccc1 (stereo not drawn) [Orphenadrine citrate] | 1.82 | 1.69 | – |
| CNCC[C@H](Oc1cccc2ccccc12)c1cccs1 [Duloxetine hydrochloride] | 49.5 | 19 | DA neuron survival as a percentage of control [4]: 107%; En-1 mRNA expression in substantia nigra, fold increase (En-1 [5]): 1.98 fold and 1.98±0.098 fold; FoxA2 mRNA expression in substantia nigra, fold increase (FoxA2 [6]): 2.19 fold and 2.19±0.23 fold |
| NC(=O)c1cc([N+](=O)[O-])cc([N+](=O)[O-])c1 [Nitromide] | – | – | Fold Increase in FoxA2 Expression (FoxA2 [1]; [7]): 1.55 Fold; Fold Increase in En-1 Expression (En-1 [2]; [7]): 0.28 Fold |
| Cc1cc(=O)[nH]c(=S)[nH]1 [Methylthiouracil] | 2.34 | – | – |
| CCOC(=O)[C@H](CCc1ccccc1)N[C@@H](C)C(=O)N1[C@H](C(=O)O)C[C@H]2CCCC[C@@H]21 [Trandolapril] | – | 17.9 | – |
